According to PMC12040169 (PLOS Biology, 2025):

Assay: in vitro
Conditions: human, hela cells, % viability

Row | SMILES | viability at 28.5 h, 10 µM
1 | O=C(Cc1coc2ccc3ccccc3c12)NNC(=O)c1ccccc1[N+](=O)[O-] [CBK268763] | 90.6%
2 | CCOc1cc(/C=C(/C#N)C(N)=S)ccc1OCC(=O)N1CCCC1 [CBK268765] | 91.3%
3 | COc1cc(S(=O)(=O)N2CCC(C(N)=O)CC2)ccc1Br [CBK268766] | 82.6%
4 | Cc1cccc(NS(=O)(=O)c2cc(C(=O)NCc3ccccn3)ccc2C)c1 [CBK268767] | 70.7%
5 | Cc1ccc(-n2c(SCC(=O)Nc3ccc(C)c([N+](=O)[O-])c3)nnc2-c2ccccc2O)c(C)c1 [CBK268769] | 96.6%
6 | CC(C(=O)Nc1ccc(F)c(F)c1)n1cc([N+](=O)[O-])cn1 (stereo not drawn) [CBK268771] | 92.9%
7 | O=C(Nc1ccc(NC(=O)C2CC=CCC2C(=O)O)cc1Cl)C1CCCCC1 (stereo not drawn) [CBK268772] | 89.7%
8 | Cc1occc1-c1nnc(SCC(=O)c2ccc3c(c2)OCCO3)o1 [CBK268773] | 83.5%
9 | Cc1ccc(-c2nc3ncccc3o2)cc1NC(=O)c1cccnc1 [CBK268774] | 100%
10 | CSc1ncc(Cl)c(C(=O)Nc2ccc(S(=O)(=O)N3CCOCC3)cc2)n1 [CBK268775] | 106%
11 | O=C(CSc1nnc(-c2cccnc2)s1)Nc1ccc([N+](=O)[O-])cc1 [CBK268777] | 112%
12 | C=CCNC(=S)Nc1sc2c(c1C(=O)OCC)CC(C)CC2 (stereo not drawn) [CBK268778] | 89.8%
13 | CCCOc1ccc(S(=O)(=O)NCc2ccncc2)c2ccccc12 [CBK268780] | 83.3%
14 | CCOc1cc(Cl)c(S(=O)(=O)NCCCN2CCOCC2)cc1Cl [CBK268781] | 87.9%
15 | CSc1ncc(Cl)c(C(=O)Nc2nc(-c3ccc(S(=O)(=O)N4CCCCCC4)cc3)cs2)n1 [CBK268785] | 96.5%
16 | N=c1n(CCCOc2ccc(Br)cc2)c2ccccc2n1CC(N)=O [CBK268786C] | 86.9%
17 | Cn1c(Cc2csc(N)n2)nnc1SCC(=O)NC1CCCCC1 [CBK268787] | 84.3%
18 | Cc1ccc(S(=O)(=O)NNC(=O)COc2cccc3cccnc23)cc1 [CBK268788] | 90.1%
19 | c1ccc2[nH]c(NCCN3CCOCC3)nc2c1 [CBK268791] | 96.7%
20 | COC(=O)C1=C(Cn2ccc(C(F)(F)F)n2)NC(=O)NC1c1cc(C)ccc1C (stereo not drawn) [CBK268792] | 105%
21 | Cc1ccc(N(C(C)C(=O)Nc2ccccc2C(F)(F)F)S(C)(=O)=O)cc1 (stereo not drawn) [CBK268796] | 84.5%

Row | SMILES | viability at 28.5 h, 10 µM
22 | CCOC(=O)c1c(NC(=O)CSc2nnnn2C)sc(C)c1C [CBK268798] | 103%
23 | COc1cc(Cl)cc(C2NC(=S)NC(c3ccccc3)=C2C(C)=O)c1OCC(=O)O (stereo not drawn) [CBK268801] | 98.3%
24 | CS(=O)(=O)Nc1cccc(C2=NN(C(=O)CCC(=O)O)C(c3cccc(F)c3)C2)c1 (stereo not drawn) [CBK268804] | 85%
25 | O=C(NCCN1CCOCC1)c1ccc2nccnc2c1 [CBK268806] | 108%
26 | O=C(O)C(Cc1ccccc1)NS(=O)(=O)c1ccc(I)cc1 (stereo not drawn) [CBK268807] | 110%
27 | Cc1ccccc1OCc1nnc(SCC(N)=O)n1-c1ccccc1 [CBK268808] | 101%
28 | CC1CCc2c(sc3ncnc(NCCc4nc5ccccc5[nH]4)c23)C1 (stereo not drawn) [CBK268809] | 91.6%
29 | CCOc1cc(Br)ccc1S(=O)(=O)NCc1ccc2c(c1)OCO2 [CBK268813] | 108%
30 | Cc1cccc(NS(=O)(=O)c2ccc(I)cc2)n1 [CBK268818] | 87%
31 | O=C(Cc1ccccc1)Nc1ccc(NC(=O)c2ccc(-c3ccccc3)cc2)cc1 [CBK268821] | 87.2%
32 | COc1ccccc1OCCn1c(=N)n(CC(N)=O)c2ccccc21 [CBK268822C] | 88.6%
33 | COc1ccc2cc(Br)ccc2c1CC(=O)Nc1ccccc1[N+](=O)[O-] [CBK268823] | 95.8%
34 | O=C(Nc1nc2ccc(Cl)cc2s1)c1nc(SCc2ccccc2)ncc1Cl [CBK268825] | 98.2%
35 | Cc1cc(-c2nnc(SCC(=O)N3CCCc4ccccc43)o2)no1 [CBK268828] | 88%
36 | Cn1c2ccccc2c2nnc(SCCCC(=O)c3ccc(F)cc3)nc21 [CBK268830] | 92.8%
37 | CCc1ccc(NC(=N)Nc2nc(CSc3ncccn3)cc(=O)[nH]2)cc1 [CBK268836] | 88.1%
38 | Cc1nnc(SCc2cc(=O)[nH]c(N3CCN(Cc4ccccc4)CC3)n2)s1 [CBK268837] | 104%
39 | Cc1nnc(SCC(=O)Nn2c(-c3ccccc3)nc3ccccc3c2=O)[nH]1 [CBK268841] | 86.8%
40 | COc1ccc(F)cc1S(=O)(=O)Nc1cccc(C)n1 [CBK268842] | 84.9%
41 | NC(=O)C1CCN(C(=O)CCCSc2nc(-c3ccco3)cc(C(F)(F)F)n2)CC1 [CBK268844] | 98.5%
42 | O=C(NCC(O)c1ccc([N+](=O)[O-])cc1)c1cccc(S(=O)(=O)N2CCCC2)c1 (stereo not drawn) [CBK268847] | 119%

Row | SMILES | viability at 28.5 h, 10 µM
43 | COc1ccc(N2C(=O)CC(N3CCN(c4ccc(S(=O)(=O)N5CCCC5)cc4)CC3)C2=O)cc1 (stereo not drawn) [CBK268851] | 85.1%
44 | CCOC(=O)C1CCN(Cc2nc(-c3ccc(OC)c(OC)c3)no2)CC1 [CBK268852] | 92.4%
45 | CC(Oc1ccccc1)C(=O)Nc1ccc(-c2csc(-c3ccccc3)n2)cc1 (stereo not drawn) [CBK268855] | 103%
46 | CCOc1ccc(C)cc1S(=O)(=O)NCCc1c(C)[nH]c2c(Cl)cccc12 [CBK268859] | 86.8%
47 | Cc1noc(/C=C\c2cc(C)n(-c3ccc(C(=O)O)cc3)c2C)c1[N+](=O)[O-] [CBK268862] | 98.8%
48 | Cc1c(Cl)cccc1NC(=S)/N=C(\N)Nc1nc(C)c2ccccc2n1 [CBK268866] | 86.9%
49 | O=C(CN1CCN(c2ccccn2)CC1)N1c2ccccc2CCc2ccccc21 [CBK268868G] | 98.4%
50 | CSc1ncc(Cl)c(C(=O)Nc2ccc(S(=O)(=O)N3CCC(Cc4ccccc4)CC3)cc2)n1 [CBK268870] | 96.3%
51 | Cc1ccc(-c2cn(S(=O)(=O)c3cccc4nsnc34)nc2N)cc1 [CBK268871] | 113%
52 | c1ccc2nc3c(nc2c1)sc1nc2ccccc2n13 [CBK268872] | 104%
53 | CCc1nnc(Sc2ccc(C=O)cc2[N+](=O)[O-])[nH]1 [CBK268876] | 95.4%
54 | Cc1ccc(-c2noc(CSc3nnc(-c4ccncc4)n3-c3ccc(C)cc3)n2)cc1 [CBK268879] | 101%
55 | CCN1CCN(C(=O)CN(C)S(=O)(=O)c2ccc(OC)c(C)c2)CC1 [CBK268880] | 110%
56 | CCOC(=O)c1cnc(Nc2nc3ccccc3o2)nc1CSc1ncccn1 [CBK268885] | 103%
57 | CSc1ncc(Cl)c(C(=O)Nc2sc3c(c2C(=O)NC2CCS(=O)(=O)C2)CCC(C)C3)n1 (stereo not drawn) [CBK268886] | 95.2%
58 | N#Cc1ccccc1COC(=O)c1cc(-c2ccc(/C=C/c3[nH]c(=O)[nH]c(=O)c3[N+](=O)[O-])o2)ccc1Cl [CBK268888] | 111%
59 | CCOC(=O)C1=C(CSc2nc3ccccc3[nH]2)NC(=O)NC1c1cccc([N+](=O)[O-])c1 (stereo not drawn) [CBK268889] | 96.2%
60 | N=C(Nc1nc(CSc2nnc(N)s2)cc(=O)[nH]1)Nc1ccc(Cl)cc1Cl [CBK268890] | 85.5%
61 | Cc1ccc(-n2c(SCC(=O)NCc3ccccc3)nnc2-c2ccccc2O)c(C)c1 [CBK268892] | 91.5%
62 | COc1ccc(Cl)cc1NC(=O)C1CC(=O)N=C(N2CCOCC2)N1 (stereo not drawn) [CBK268893] | 100%
63 | O=C1c2cccc3cccc(c23)C(=O)N1CCCSc1nnc[nH]1 [CBK268894] | 66.4%

Row | SMILES | viability at 28.5 h, 10 µM
64 | COc1ccc(N2C(=O)CC(n3c(CCCCO)nc4ccccc43)C2=O)cc1 (stereo not drawn) [CBK268895] | 107%
65 | Cc1cc(C)c(C)c(S(=O)(=O)NCCCC(=O)O)c1C [CBK268898] | 83.8%
66 | COc1ccc(Cl)c(NC(=O)NCCN2CCN(c3ccccc3)CC2)c1 [CBK268899] | 90.7%
67 | COc1ccccc1NS(=O)(=O)c1ccc2c(c1)C1C=CCC1C(c1ccc(C(=O)O)cc1)N2 (stereo not drawn) [CBK268903] | 101%
68 | CSc1nsc(SCC(=O)c2ccc3c(c2)OCCO3)n1 [CBK268904] | 108%
69 | Cc1ccc(-n2c(SCC(=O)Nc3ccccc3F)nnc2-c2ccccc2O)c(C)c1 [CBK268905] | 88.6%
70 | CSc1nc(-n2nc(C)cc2C)c2c3c(sc2n1)COC(C)(C)C3 [CBK268906] | 89.7%
71 | Cc1cccnc1NC(=S)NCc1ccco1 [CBK268907] | 103%
72 | O=C(NC(=S)Nc1ccc2[nH]c(=O)[nH]c2c1)c1ccc(OCc2ccccc2)cc1 [CBK268908] | 83.8%
73 | COc1ccc(C(=O)c2ccc(N3CCN(C4CC(=O)NC4=O)CC3)cc2)cc1F (stereo not drawn) [CBK268909] | 94.2%
74 | Cc1ccc(Cn2nc(C)c(NC(=O)c3nc4ncccn4n3)c2C)cc1 [CBK268912] | 90.9%
75 | Cc1c(Br)c([N+](=O)[O-])nn1C(C)C(=O)Nc1sc2c(c1C(N)=O)CCCC2 (stereo not drawn) [CBK268914] | 88.1%
76 | O=C(O)c1cn(C2CC2)c2cc(N3CCN(C(=S)Nc4ccc5c(c4)OCCO5)CC3)c(F)cc2c1=O [CBK268916] | 90.9%
77 | CCOC(=O)c1ccc(NC(=O)c2ccccc2-c2nc(-c3ccccc3Cl)no2)cc1 [CBK268919] | 111%
78 | CSc1ncc(Cl)c(C(=O)Nc2nnc(C)s2)n1 [CBK268920] | 90.1%
79 | CCC(C)NC(=O)c1ccc2nccnc2c1 (stereo not drawn) [CBK268921] | 89.4%
80 | NC(=O)CSc1nc(NCc2ccccc2)nc(N2CCOCC2)n1 [CBK268923] | 93.3%
81 | COc1ccc(N2C(=O)CC(N3CCN(c4ccc(C(=O)c5cccnc5)cc4)CC3)C2=O)cc1 (stereo not drawn) [CBK268924] | 92.7%

Same assay, conditions: human, hela cells, % viability, bulk resorufin, single well

Row | SMILES | viability at 28.5 h, 10 µM
82 | C=CCN1C(=O)NC(=O)C(CCc2ccccn2)(CCc2ccccn2)C1=O [CBK268761] | 104%
83 | O=C1NC(=O)C(CCc2ccccn2)(CCc2ccccn2)C(=O)N1c1ccc(F)cc1 [CBK268816] | 93%
84 | Cc1ccc(Cl)cc1N1C(=O)NC(=O)C(CCc2ccccn2)(CCc2ccccn2)C1=O [CBK268838] | 98.6%
